Measurements reported in patent US20070207987A1, “Androgen Modulators” (WARNER-LAMBERT COMPANY LLC, priority 2004, published 2007).
Where two headings read alike, the source gives them in different places.

Columns and labels:
hAR = molecular target: T1, hAR (Homo sapiens, UniProt P10275); assay: Competitive binding of 3H-DHT to hAR extracts; settings: baculovirus/Sf9 hAR extract, 1 nM 3H-DHT, one hour at 4° C., mean of multiple tests
T1 construct: made in house; host or cells: baculovirus/Sf9 insect cells
T1 sequence (P10275 1-920): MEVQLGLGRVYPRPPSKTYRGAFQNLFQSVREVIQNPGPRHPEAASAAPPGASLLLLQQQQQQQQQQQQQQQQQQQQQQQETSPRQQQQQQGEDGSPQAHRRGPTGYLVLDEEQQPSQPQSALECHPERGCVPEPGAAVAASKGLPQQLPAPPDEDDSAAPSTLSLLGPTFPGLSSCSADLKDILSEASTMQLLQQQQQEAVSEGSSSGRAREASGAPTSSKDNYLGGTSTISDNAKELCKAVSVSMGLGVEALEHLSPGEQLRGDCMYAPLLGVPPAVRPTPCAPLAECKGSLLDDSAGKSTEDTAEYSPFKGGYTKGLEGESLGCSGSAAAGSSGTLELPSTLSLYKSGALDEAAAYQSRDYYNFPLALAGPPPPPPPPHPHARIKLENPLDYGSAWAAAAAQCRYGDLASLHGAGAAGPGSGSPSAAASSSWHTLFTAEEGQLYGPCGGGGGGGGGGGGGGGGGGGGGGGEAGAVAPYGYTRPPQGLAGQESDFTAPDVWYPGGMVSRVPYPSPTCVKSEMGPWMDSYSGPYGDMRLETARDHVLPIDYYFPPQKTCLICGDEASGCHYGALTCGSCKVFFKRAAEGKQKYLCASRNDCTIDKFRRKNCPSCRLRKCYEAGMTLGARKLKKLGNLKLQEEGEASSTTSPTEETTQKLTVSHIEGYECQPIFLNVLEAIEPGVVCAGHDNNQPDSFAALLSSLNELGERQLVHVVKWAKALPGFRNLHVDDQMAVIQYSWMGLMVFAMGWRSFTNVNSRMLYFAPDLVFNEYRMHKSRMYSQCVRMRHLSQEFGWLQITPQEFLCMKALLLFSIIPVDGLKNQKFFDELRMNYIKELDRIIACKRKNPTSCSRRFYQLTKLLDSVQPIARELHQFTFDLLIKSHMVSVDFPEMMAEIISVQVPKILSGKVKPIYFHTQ
Method: The compounds of Formula I have affinity for the androgen receptor. […] The description below describes how the assay was carried out.
Competitive binding analysis was performed on baculovirus/Sf9 generated hAR extracts in the presence or absence of different concentrations of test agent and a fixed concentration of ^3H-dihydrotestosterone (^3H-DHT) as tracer. This binding assay method is a modification of a protocol previously described (Liao S., et. al. J. Steroid Biochem. 20:11-17 1984). Briefly, progressively decreasing concentrations of compounds are incubated in the presence of hAR extract (Chang et al. P.N.A.S. Vol. 89, pp. […], 1992), hydroxylapatite, and 1 nM ^3H-DHT for one hour at 4° C. Subsequently, the binding reactions are washed three times to completely remove excess unbound ^3H-DHT. hAR bound ^3H-DHT levels are determined in the presence of compounds (i.e. competitive binding) and compared to levels bound when no competitor is present (i.e. maximum binding). Compound binding affinity to the hAR is expressed as the concentration of compound at which one half of the maximum binding is inhibited. Table I below provides the results that were obtained for selected compounds (reported data is the mean of multiple tests as shown below)

androgen receptor = androgen receptor (Homo sapiens, UniProt P10275); assay: AR antagonist cell assay (MMTV-luciferase reporter, MDA-MB453-MMTV clone 54-19); assay type: cell-based
Method: The compounds ability to antagonize the effects of androgen on the androgen receptor were determined in a whole cell assay as described immediately below.
Experimental Procedure for AR Antagonist Cell Assay
This cell line is a stable transfected cell line with MDA-MB453 cell background (a human breast tumor cell line expressing androgen receptor). A MMTV minimal promoter containing ARE was first cloned in front of a firefly luciferase reporter gene. Then the cascade was cloned into transfection vector pUV120puro. Electroporation method was used for transfecting MDA-MB-453 cell. Puromycin resistant stable cell line was selected.
Cell Culture Media and Reagents:
Culture medium: DMEM (high glucose, Gibco cat #: 11960-044), 10% FBS, and 1% L-glutamine
Plating medium: DMEM (phenol red free), 10% charcoal treated HyClone serum, 1% L-glutamine
Assay medium: DMEM (phenol red free), 1% charcoal treated HyClone serum, 1% L-glutamine, and 1% penicillin/streptomycin
3× luciferase buffer: 2% beta-mercaptoethanol, 0.6% ATP, 0.0135% luciferine in cell lysis buffer
• 1. Cells are maintained in culture medium, splitting cells when they reach 80-90% confluence • 2. To test compounds, 10,000 cells/well are plated to opaque 96 cell culture plate in 100 ul/well plating medium, culture for overnight at 37° C. in cell culture incubator • 3. Carefully remove plating medium, then add 80 ul/well of pre-warmed assay medium, add 10 ul/well testing compound (final concentration at) 1000 nM, 200 nM, 40 nM, 8 nM, 1.6 nM, and 0.32 nM), incubate at 37° C. for 30 minutes • 4. Add 10 ul/well freshly prepared DHT (final concentration at 100 pM) to each well, incubate at 37° C. for 17 hr (overnight) • 5.
The results are reported as the mean of multiple tests as described below (the numbers of tests are indicated in the footnote). N.D. denotes that the compound was not tested.

male Syrian hamsters = assay: Animal model for inhibition of sebum production (hamster ear); assay type: in vivo, Syrian hamster; settings: five days a week, 4 weeks; for % CE reduction / % WE reduction: vs vehicle control
Method: Luderschmidt et al. describes an animal model for testing whether compounds are capable of modulating sebum secretion. Arch. Derm. Res. 258, 185-191 (1977). This model uses male Syrian hamsters, whose ears contain sebaceous glands. The products of Examples 1 and 2 were screened in this model.
Testing for sebum inhibition was carried out in the following manner. Male Syrian hamsters aged 9 to 10 weeks were introduced into the laboratory environment and acclimated for 2 weeks prior to use in the study. Each group consisted of 5 animals and run in parallel with vehicle and positive controls. Prior to administration, a sufficient quantity each compound was dissolved in 1 mL of a solvent consisting of transcutol, propylene glycol, and ethanol (2/2/6 v/v/v) to achieve the final concentration described in Table III.
Animals were dosed topically twice daily, five days a week, for 4 weeks. Each dose consisted of 25 micro liters of vehicle control or drug. The dose was applied to the ventral surfaces of both the right and left ears. All animals were sacrificed approximately 18-24 hours after the final dose. The right ears were collected from each animal and used for sebum analysis.
The ears were prepped for HPLC analysis in the following manner. One 8 mm distal biopsy punch was taken, just above the anatomical “V” mark in the ear to normalize the sample area. The punch was pulled apart. The ventral biopsy surface (the area where the topical dose was directly applied to the sebaceous glands) was retained for testing and the dorsal surface of the biopsy punch was discarded.
Tissue samples were blown with N2 gas and stored at −80° C. under nitrogen until HPLC analysis. In addition to ear samples, an aliquot of each drug and vehicle (at least 250 ul) was also stored at −80° C. for inclusion in the HPLC analysis.
HPLC analysis was carried out on an extract of the tissue sample. Tissue samples were contacted with 3 ml of solvent (a 4:1 admixture of 2,2,4-trimethylpentane and isopropyl alcohol). The mixture was shaken for 15 minutes and stored overnight at room temperature, protected from light. The next morning 1 milliliter of water was added to the sample and shaken for 15 minutes. The sample was then centrifuged at approximately 1500 rpm for 15 minutes. Two ml of the organic phase (top layer) was transferred to a glass vial, dried at 37° C., under nitrogen, for approximately 1 hour, and then lyophilized for approximately 48 hours. The samples were then removed from the lyophilizer and each vial was reconstituted with 600 μl of solvent A (trimethylpentane/tetrahydrofuran (99:1). The samples were then recapped and vortexed for 5 minutes.
200 μl of each sample was then transferred to a pre-labeled 200 μl HPLC vial with 200 μL glass inserts. The HPLC vials were placed in the autosampler tray for the Agilent 1100 series HPLC unit. The Agilent 1100 HPLC system consisted of a thermostated autosampler, a quarternary pump, a column heater, and an A/D interface module. All components were controlled by Agilent ChemStation software. A Waters Spherisorb S3W 4.6×100 mm analytical column was maintained at 30° C. by the Agilent column heater unit. The HPLC autosampler was programmed to maintain the sample temperature at 20 C. throughout the run.
10 uL of each sample was injected in triplicate into the column. Two solvents were used for the solvent gradient. Solvent A was an admixture of trimethylpentane and tetrahydrofuran (99:1). Solvent B was ethylacetate. The gradient utilized is described in the table below: […]
The Sedex 75 Evaporative Light Scattering Detector (ELSD) was operated at 45° C. with a gain of 5, and N2 pressure maintained at 3.1 bar. Analog signal obtained by the instrument was sent to the Agilent A/D interface module where it was converted to a digital output. The conversion was based on a 10000 mAU/volt set point and the data rate was set at 10 Hz (0.03 min). […]

patients = settings: after 7 years of treatment; cited from earlier work

Compound: CC1(C)COC(=O)C1Oc1ccc(C#N)c(C(F)(F)F)c1 (racemic) [Example 1, (±)-4-(4,4-Dimethyl-2-oxo-tetrahydro-furan-3-yloxy)-2-trifluoromethyl-benzonitrile)]
- IC50 (hAR; ARB (IC50)): 122 nM
- IC50 (androgen receptor): 60 nM
- Sum of WE & WE (male Syrian hamsters; 1% w/v topical twice daily): 128
- % CE reduction (male Syrian hamsters; 1% w/v topical twice daily): 55%
- % WE reduction (male Syrian hamsters; 1% w/v topical twice daily): 73%

Compound: N#Cc1ccc(OC2CCOC2=O)cc1C(F)(F)F (racemic) [Example 4, (±)-4-(2-Oxo-tetrahydro-furan-3-yloxy)-2-trifluoromethyl-benzonitrile]
- IC50 (hAR; read-out: ARB (IC50)): 5850 nM
- melting point: 120 °C

Compound: N#Cc1ccc(OC2CCOC2=O)cc1C(F)(F)F (single isomer, unassigned; (+)) [Example 5, (+)-4-(2-Oxo-tetrahydro-furan-3-yloxy)-2-trifluoromethyl-benzonitrile]
- IC50 (hAR; read-out: ARB (IC50)): 9800 nM
- melting point: 107 to 108 °C

Compound: N#Cc1ccc(OC2CCOC2=O)cc1C(F)(F)F (single isomer, unassigned; (-)) [Example 6, (−)-4-(2-Oxo-tetrahydro-furan-3-yloxy)-2-trifluoromethyl-benzonitrile]
- IC50 (hAR; read-out: ARB (IC50)): 1670 nM

Compound: CC1(C)COC(=O)[C@@H]1Oc1ccc(C#N)c(C(F)(F)F)c1 [Example 2, (R)-(+)-4-(4,4-Dimethyl-2-oxo-tetrahydro-furan-3-yloxy)-2-trifluoromethyl-benzonitrile]
- IC50 (hAR; ARB (IC50)): 71 nM
- IC50 (androgen receptor): 47 nM
- Sum of WE & WE (male Syrian hamsters; 3% w/v topical twice daily): 171
- % CE reduction (male Syrian hamsters; 3% w/v topical twice daily): 79%
- % WE reduction (male Syrian hamsters; 3% w/v topical twice daily): 92%
- melting point: 89.9 to 90.7 °C

Compound: CC1(C)COC(=O)[C@H]1Oc1ccc(C#N)c(C(F)(F)F)c1 [Example 3, (S)-(−)-4-(4,4-Dimethyl-2-oxo-tetrahydro-furan-3-yloxy)-2-trifluoromethyl-benzonitrile]
- IC50 (hAR; ARB (IC50)): > 10000 nM
- IC50 (androgen receptor; inhibition of induction by 100 pM DHT, 17 hr, mean of multiple tests, read-out: ARCell (IC50)): > 1000 nM
- melting point: 83.1 to 84.4 °C

Compound: NCCCC(O)(P(=O)(O)O)P(=O)(O)O [alendronate]
- Increase in spinal BMD (patients): ≤ 11%
